Like-named read-outs stand apart in the source and are kept apart here.
Legend:
[1] = Pharmacokinetics of intraperitoneal or intravenous injection in CD1 mice; type: in vivo; conditions: for Conc. (ng/mL) Mouse 1 / Conc. (ng/mL) Mouse 2 / Conc. (ng/mL) Mouse 3 / concentration at 0.25 h / concentration at 0.5 h / concentration at 1 h / concentration at 2 h / concentration at 4 h / concentration at 8 h / concentration at 0.033 h / concentration at 0.083 h: CD1 mice plasma; for concentration at 0.25 h / concentration at 0.5 h / concentration at 1 h / concentration at 2 h / concentration at 4 h / concentration at 8 h / AUC(0-t) / half-life / concentration at 0.033 h / concentration at 0.083 h: male, CD1, mouse, plasma
Procedure, shortened: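 Male CD1 mice, 6-8 weeks old, 3 per group, dosed IV (5 s injection; 10% HP-b-CD, 40 mM sodium acetate, 40 mM NaCl, pH 4.5) or IP (5% EtOH, 5% Solutol HS15 in D5W). Serial dorsal metatarsal vein blood, terminal heart puncture; plasma analysed by LC/MS/MS after acetonitrile precipitation, calibration 1-2000 ng/mL.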

PPB = type: in vitro ADME; conditions: plasma
[2] = ip, 10 mg/kg, IP 10 mg/kg, read-out: Conc. (ng/mL) Mouse 1
[3] = ip, 10 mg/kg, IP 10 mg/kg, read-out: Conc. (ng/mL) Mouse 2
[4] = ip, 10 mg/kg, IP 10 mg/kg, read-out: Conc. (ng/mL) Mouse 3
[5] = ip, 10 mg/kg, IP 10 mg/kg, read-out: Mean
[6] = iv, 1 mg/kg, IV 1.0 mg/kg, read-out: Conc. (ng/mL) Mouse 1
[7] = iv, 1 mg/kg, IV 1.0 mg/kg, read-out: Conc. (ng/mL) Mouse 2
[8] = iv, 1 mg/kg, IV 1.0 mg/kg, read-out: Conc. (ng/mL) Mouse 3
[9] = iv, 1 mg/kg, IV 1.0 mg/kg, read-out: Mean

With `Cc1ncsc1-c1ccc(CNC(=O)[C@@H]2C[C@@H](O)CN2C(=O)[C@@H](NC(=O)COCCCOc2ccc(Nc3ncc(C(F)(F)F)c(NCc4cccc(N(C)S(C)(=O)=O)c4)n3)cc2)C(C)(C)C)cc1` [Compound 101, (2S,4R)-1-((S)-3,3-dimethyl-2-(2-(3-(4-((4-((3-(N-methylmethylsulfonamido)benzyl)amino)-5-(trifluoromethyl)pyrimidin-2-yl)amino)phenoxy)propoxy)acetamido)butanoyl)-4-hydroxy-N-(4-(4-methylthiazol-5-yl)benzyl)pyrrolidine-2-carboxamide] the “Conc. (ng/mL) Mouse 1” value ([1]; IP 10 mg/kg, 24 h) was “BLOQ”, the “Conc. (ng/mL) Mouse 2” value ([1]; IP 10 mg/kg, 24 h) was “BLOQ” and the “Conc. (ng/mL) Mouse 3” value ([1]; IP 10 mg/kg, 24 h) was “BLOQ”. For the same molecule, the “Conc. (ng/mL) Mouse 1” value ([1]; IV 1.0 mg/kg, 4 h) was “BLOQ”, the “Conc. (ng/mL) Mouse 3” value ([1]; IV 1.0 mg/kg, 4 h) was “BLOQ” and the “Conc. (ng/mL) Mouse 1” value ([1]; IV 1.0 mg/kg, 8 h) was “BLOQ”. The “Conc. (ng/mL) Mouse 2” value ([1]; IV 1.0 mg/kg, 8 h) was “BLOQ”, the “Conc. (ng/mL) Mouse 3” value ([1]; IV 1.0 mg/kg, 8 h) was “BLOQ” and the “Conc. (ng/mL) Mouse 1” value ([1]; IV 1.0 mg/kg, 24 h) was “BLOQ”. The “Conc. (ng/mL) Mouse 2” value ([1]; IV 1.0 mg/kg, 24 h) was “BLOQ”, the “Conc. (ng/mL) Mouse 3” value ([1]; IV 1.0 mg/kg, 24 h) was “BLOQ” and the concentration at 0.25 h [1, 2] was 800 ng/mL. For the same molecule, the concentration at 0.25 h [1, 3] was 407 ng/mL, the concentration at 0.25 h [1, 4] was 271 ng/mL and the concentration at 0.25 h [1, 5] was 493 ng/mL. For the same molecule, the concentration at 0.5 h [1, 2] was 860 ng/mL, the concentration at 0.5 h [1, 3] was 523 ng/mL and the concentration at 0.5 h [1, 4] was 335 ng/mL. It also gave a concentration at 0.5 h [1, 5] of 573 ng/mL, a concentration at 1 h [1, 2] of 1040 ng/mL and a concentration at 1 h [1, 3] of 1520 ng/mL. For the same molecule, the concentration at 1 h [1, 4] was 1780 ng/mL, the concentration at 1 h [1, 5] was 1450 ng/mL and the concentration at 2 h [1, 2] was 1630 ng/mL. For the same molecule, the concentration at 2 h [1, 3] was 1590 ng/mL, the concentration at 2 h [1, 4] was 1180 ng/mL and the concentration at 2 h [1, 5] was 1470 ng/mL. For the same molecule, the concentration at 4 h ([1]; ip, 10 mg/kg, IP 10 mg/kg, 4 h, read-out: Conc. (ng/mL) Mouse 1) was 378 ng/mL, the concentration at 4 h ([1]; ip, 10 mg/kg, IP 10 mg/kg, 4 h, read-out: Conc. (ng/mL) Mouse 2) was 1090 ng/mL and the concentration at 4 h ([1]; ip, 10 mg/kg, IP 10 mg/kg, 4 h, read-out: Conc. (ng/mL) Mouse 3) was 1250 ng/mL. The concentration at 4 h ([1]; ip, 10 mg/kg, IP 10 mg/kg, 4 h, read-out: Mean) was 906 ng/mL, the concentration at 8 h ([1]; ip, 10 mg/kg, IP 10 mg/kg, 8 h, read-out: Conc. (ng/mL) Mouse 1) was 24.1 ng/mL and the concentration at 8 h ([1]; ip, 10 mg/kg, IP 10 mg/kg, 8 h, read-out: Conc. (ng/mL) Mouse 2) was 145 ng/mL. The concentration at 8 h ([1]; ip, 10 mg/kg, IP 10 mg/kg, 8 h, read-out: Conc. (ng/mL) Mouse 3) was 77.1 ng/mL, the concentration at 8 h ([1]; ip, 10 mg/kg, IP 10 mg/kg, 8 h, read-out: Mean) was 82 ng/mL and the AUC(0-t) ([1]; ip, 10 mg/kg, read-out: AUClast (h * ng/mL) IP) was 6500 ng·h/mL. It also gave a half-life ([1]; ip, 10 mg/kg, read-out: T ½ (h) IP (converted)) of 1.22 h, a concentration at 0.033 h [1, 6] of 2100 ng/mL and a concentration at 0.033 h [1, 7] of 1800 ng/mL. The concentration at 0.033 h [1, 8] was 2310 ng/mL, the concentration at 0.033 h [1, 9] was 2070 ng/mL and the concentration at 0.083 h [1, 6] was 356 ng/mL. It also gave a concentration at 0.083 h [1, 7] of 303 ng/mL, a concentration at 0.083 h [1, 8] of 432 ng/mL and a concentration at 0.083 h [1, 9] of 364 ng/mL. The concentration at 0.25 h [1, 6] was 50.1 ng/mL, the concentration at 0.25 h [1, 7] was 47.7 ng/mL and the concentration at 0.25 h [1, 8] was 47 ng/mL. It also gave a concentration at 0.25 h [1, 9] of 48.3 ng/mL, a concentration at 0.5 h [1, 6] of 20.9 ng/mL and a concentration at 0.5 h [1, 7] of 28.6 ng/mL. For the same molecule, the concentration at 0.5 h [1, 8] was 27.7 ng/mL, the concentration at 0.5 h [1, 9] was 25.7 ng/mL and the concentration at 1 h [1, 6] was 8.68 ng/mL. The concentration at 1 h [1, 7] was 11.6 ng/mL, the concentration at 1 h [1, 8] was 9.52 ng/mL and the concentration at 1 h [1, 9] was 9.9 ng/mL. For the same molecule, the concentration at 2 h [1, 6] was 5.32 ng/mL, the concentration at 2 h [1, 7] was 7.86 ng/mL and the concentration at 2 h [1, 8] was 5.45 ng/mL. The concentration at 2 h [1, 9] was 6.21 ng/mL, the concentration at 4 h ([1]; iv, 1 mg/kg, IV 1.0 mg/kg, 4 h, read-out: Conc. (ng/mL) Mouse 2) was 4.59 ng/mL and the AUC(0-t) ([1]; iv, 1 mg/kg, read-out: AUClast (h * ng/mL) IV) was 268 ng·h/mL. It also gave a half-life ([1]; iv, 1 mg/kg, read-out: T ½ (h) IV (converted)) of 1.26 h and a fraction unbound (PPB) of 0.0065.

Source: US20200038513A1, “MODULATORS OF FAK PROTEOLYSIS AND ASSOCIATED METHODS OF USE” (ARVINAS OPERATIONS, INC., priority 2018, published 2020)
